Values quoted from earlier work as cited in patent publication US20180373846A1, “METHODS AND SYSTEMS FOR ORGANIC SOLUTE SAMPLING OF AQUEOUS AND HETEROGENEOUS ENVIRONMENTS” (University of Maryland, Baltimore, priority 2014, published 2018).

Experiments:
[1] = Table 2, reference 31
[2] = experimental hydration free energy
T4-L99A = T4-L99A (Enterobacteria phage T4, UniProt P00720, L99A)
β2AR = β2AR (Homo sapiens, UniProt P07550); conditions: experimental, from cited references

c1ccccc1 [Benzene, benzene]
HFE^fep [1]: -0.71 kcal/mol | HFE^exp [2]: -0.83 kcal/mol | experimental binding affinity (T4-L99A): -5.19 ± 0.16 kcal/mol

CN [Methylammonium, methylammonium]
HFE^fep [1]: -52.0 kcal/mol | HFE^exp [2]: -71.3 kcal/mol

CC(=O)O [Acetate]
HFE^fep [1]: -96.5 kcal/mol | HFE^exp [2]: -79.1 kcal/mol

CO [Methanol, methanol]
HFE^fep [1]: -6.16 kcal/mol | HFE^exp [2]: -5.1 kcal/mol

NC=O [Formamide, formamide]
HFE^fep [1]: -10.71 kcal/mol | HFE^exp [2]: -14 kcal/mol

c1c[nH]cn1 [Imidazole, imidazole]
HFE^fep [1]: -12.55 kcal/mol

Hydroxybenzyl isoproterenol
ΔGbind (β2AR): −9.72

Nc1c(Cl)cc([C@@H](O)CNCCCCCCOCCc2ccccn2)cc1Cl [Picumeterol]
ΔGbind (β2AR): −12.23

CCC [Propane, propane]
HFE^fep [1]: 1.60 kcal/mol | HFE^exp [2]: 1.96 kcal/mol

CC=O [Acetaldehyde, acetaldehyde]
HFE^fep [1]: -4.43 kcal/mol | HFE^exp [2]: -3.5 kcal/mol

CC(C)NCC(O)COc1cccc2[nH]ccc12 (centres unmarked) [Pindolol]
ΔGbind (β2AR): −12.43

O [Water, water]
HFE^exp [2]: -5.6 kcal/mol
